In patent US20260325533A1, “CDK INHIBITOR COMPOUNDS” (ALEKSIA THERAPEUTICS, INC., priority 2023, published 2026) one finds IC50 data, which are given here for 16 molecules.

Like-named read-outs stand apart in the source and are kept apart here.

Holding throughout (assay type): biochemical
One experiment deals with CDK2/CCNE1 (Homo sapiens, UniProt P24941). Briefly: CDK2 homogeneous time-resolved fluorescence (HTRF) kinase assay. The settings on record: CDK2/CCNE. In short, it runs like this: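 Compounds were titrated 11-point, half-log from typically 10 μM against 3 nM CDK2/cyclin E1 at 1 mM ATP, with a 20 min enzyme preincubation. Phosphorylation of 50 nM ULight-4E-BP1 peptide over 60 min at 23 °C was detected by europium anti-phospho antibody TR-FRET.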
(In TR-FRET formats the signal depends on donor and acceptor labels being close together.)

Another experiment concerns the target CDK1/CCNB1 (Homo sapiens, UniProt P06493). Briefly: CDK1 homogeneous time-resolved fluorescence (HTRF) kinase assay. The settings on record: CDK1/CCNB. In short, it runs like this:
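CDK1/CCNB1 0.5 nM + cpd, 20 min 23 °C; add 1 mM ATP, 50 nM ULight-4E-BP1 peptide, 60 min 23 °C; stop 10 mM EDTA; 2 nM Eu-Ab, 60 min; HTRF 665 nm. 11-pt half-log, top 10 μM typical; IC50.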

Another experiment deals with CDK4/CCND3 (Homo sapiens, UniProt P11802). Briefly: CDK4 homogeneous time-resolved fluorescence (HTRF) kinase assay. The settings on record: CDK4/CCND. In short, it runs like this: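 Inhibition of CDK4/CCND3 (1.5 nM) was measured at high ATP (1 mM) using 50 nM ULight-labelled 4E-BP1 Thr37/46 peptide; detection used 2 nM europium anti-phospho antibody after EDTA quench. IC50 values came from 11-point half-log titrations typically starting at 10 μM.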

Another experiment concerns the target CDK6/CCND1 (Homo sapiens, UniProt Q00534). As to the kind of experiment: CDK6 homogeneous time-resolved fluorescence (HTRF) kinase assay. The settings on record: CDK6/CCND, 1 mM ATP. In short, it runs like this: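 1 nM enzyme, 1 mM ATP, 50 nM ULight-4E-BP1 (Thr37/46) peptide, 1% DMSO; 20 min compound preincubation, 60 min reaction, 23 °C. EDTA stop, 2 nM Eu-anti-phospho-4E-BP1 antibody 60 min. TR-FRET 665 nm (or 665/615 ratio); IC50 from 11-point half-log titration, top 10 μM.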

Where [1] appears, read: <25 nM, read-out: CDK2/CCNE IC50, <25 nM.
Where [2] appears, read: 25-250 nM, read-out: CDK1/CCNB IC50, 25-250 nM.
Where [3] appears, read: 25-250 nM, read-out: CDK4/CCND IC50, 25-250 nM.
[4] abbreviates: 25-250 nM, read-out: CDK6/CCND IC50, 25-250 nM.
Where [5] appears, read: >250 nM, read-out: CDK1/CCNB IC50 >250 nM.
[6] abbreviates: >250 nM, read-out: CDK4/CCND IC50, >250 nM.
Where [7] appears, read: >250 nM, read-out: CDK6/CCND IC50, >250 nM.
Setting [8] is: 25-250 nM, read-out: CDK2/CCNE IC50, 25-250 nM.

Sequence of CDK1/CCNB1 (P06493 whole entry): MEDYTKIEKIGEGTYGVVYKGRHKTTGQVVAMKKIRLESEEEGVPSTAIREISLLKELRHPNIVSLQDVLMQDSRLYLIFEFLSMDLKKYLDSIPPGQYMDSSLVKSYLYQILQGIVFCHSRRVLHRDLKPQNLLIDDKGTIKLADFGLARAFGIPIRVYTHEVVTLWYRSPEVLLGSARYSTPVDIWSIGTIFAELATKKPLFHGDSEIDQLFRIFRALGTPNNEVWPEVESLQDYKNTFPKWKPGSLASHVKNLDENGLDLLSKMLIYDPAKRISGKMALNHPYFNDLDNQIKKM
Sequence of CDK1/CCNB1 (P14635 whole entry partner): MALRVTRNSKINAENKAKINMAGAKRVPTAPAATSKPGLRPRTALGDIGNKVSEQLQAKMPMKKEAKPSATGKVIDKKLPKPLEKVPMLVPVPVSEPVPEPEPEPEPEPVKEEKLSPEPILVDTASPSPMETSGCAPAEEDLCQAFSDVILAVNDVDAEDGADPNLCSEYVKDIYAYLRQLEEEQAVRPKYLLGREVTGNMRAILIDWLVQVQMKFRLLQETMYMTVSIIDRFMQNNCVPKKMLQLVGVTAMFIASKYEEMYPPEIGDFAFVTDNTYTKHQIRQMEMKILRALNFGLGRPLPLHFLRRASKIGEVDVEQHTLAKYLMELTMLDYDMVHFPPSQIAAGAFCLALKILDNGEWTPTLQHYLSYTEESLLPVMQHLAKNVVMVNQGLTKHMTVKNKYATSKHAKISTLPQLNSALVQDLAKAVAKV
Sequence of CDK6/CCND1 (Q00534 whole entry): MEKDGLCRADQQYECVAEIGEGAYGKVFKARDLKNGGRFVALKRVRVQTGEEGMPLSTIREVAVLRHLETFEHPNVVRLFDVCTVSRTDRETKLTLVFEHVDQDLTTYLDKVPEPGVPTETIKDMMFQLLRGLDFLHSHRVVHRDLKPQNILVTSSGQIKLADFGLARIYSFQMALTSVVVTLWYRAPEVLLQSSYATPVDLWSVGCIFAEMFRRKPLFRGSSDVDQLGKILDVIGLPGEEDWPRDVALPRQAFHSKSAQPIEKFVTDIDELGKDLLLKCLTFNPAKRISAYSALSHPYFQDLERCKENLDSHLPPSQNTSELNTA
Sequence of CDK6/CCND1 (P24385 whole entry partner): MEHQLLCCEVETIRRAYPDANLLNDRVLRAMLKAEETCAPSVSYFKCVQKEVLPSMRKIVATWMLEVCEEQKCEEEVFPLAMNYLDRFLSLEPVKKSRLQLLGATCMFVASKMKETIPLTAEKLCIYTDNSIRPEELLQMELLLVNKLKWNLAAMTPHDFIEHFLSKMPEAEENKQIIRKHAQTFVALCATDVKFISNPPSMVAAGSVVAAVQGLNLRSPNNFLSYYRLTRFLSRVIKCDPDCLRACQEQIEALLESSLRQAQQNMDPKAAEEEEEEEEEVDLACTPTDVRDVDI
Sequence of CDK4/CCND3 (P11802 whole entry): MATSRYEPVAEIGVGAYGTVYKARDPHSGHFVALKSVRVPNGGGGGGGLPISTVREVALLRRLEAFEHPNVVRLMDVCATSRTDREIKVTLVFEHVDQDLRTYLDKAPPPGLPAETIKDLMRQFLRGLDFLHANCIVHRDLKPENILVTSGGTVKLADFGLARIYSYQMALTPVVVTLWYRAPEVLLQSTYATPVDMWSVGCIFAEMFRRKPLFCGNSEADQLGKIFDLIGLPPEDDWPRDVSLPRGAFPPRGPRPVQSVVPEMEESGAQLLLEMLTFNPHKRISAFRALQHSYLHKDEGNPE
Sequence of CDK4/CCND3 (P30281 whole entry partner): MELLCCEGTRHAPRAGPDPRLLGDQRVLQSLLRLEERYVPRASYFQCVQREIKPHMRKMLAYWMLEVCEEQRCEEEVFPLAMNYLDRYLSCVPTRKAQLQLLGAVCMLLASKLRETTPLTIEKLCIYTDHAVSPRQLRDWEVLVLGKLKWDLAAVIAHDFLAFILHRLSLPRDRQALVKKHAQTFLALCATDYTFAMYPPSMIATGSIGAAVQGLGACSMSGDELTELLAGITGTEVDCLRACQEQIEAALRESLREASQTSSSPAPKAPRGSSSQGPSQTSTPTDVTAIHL

Regarding `Cc1c(-c2nccc3cnc(Nc4ccc(NS(=O)(=O)c5cccnn5)cc4)cc23)ccc2c1cnn2CC(C)(C)O` [Ex 754, N-(4-((5-(1-(2-hydroxy-2-methylpropyl)-4-methyl-1H-indazol-5-yl)-2,6-naphthyridin-3-yl)amino)phenyl)pyridazine-3-sulfonamide], the IC50 is under 25 nM at CDK2/CCNE1 (setting [1]), 25 to 250 nM at CDK1/CCNB1 (setting [2]), 25 to 250 nM at CDK4/CCND3 (setting [3]) and 25 to 250 nM on CDK6/CCND1 (setting [4]).
Take `Cc1c(-c2nccc3cnc(Nc4ccc(S(=O)(=O)Nc5nccc(N6CCN(CCO)CC6)n5)cc4)cc23)ccc2c1cnn2CC(O)(C(F)(F)F)C(F)(F)F` [Ex 755, N-(4-(4-(2-hydroxyethyl)piperazin-1-yl)pyrimidin-2-yl)-4-((5-(4-methyl-1-(3,3,3-trifluoro-2-hydroxy-2-(trifluoromethyl)propyl)-1H-indazol-5-yl)-2,6-naphthyridin-3-yl)amino)benzenesulfonamide]: the IC50 on CDK2/CCNE1 (setting [1]) is under 25 nM; on CDK1/CCNB1 (setting [5]), over 250 nM; at CDK4/CCND3 (setting [6]), over 250 nM; at CDK6/CCND1 (setting [7]), over 250 nM.
Turning to `Cc1c(-c2nccc3cnc(Nc4ccc(S(=O)(=O)Nc5nccc(N6CCN(C)CC6)n5)cc4)cc23)ccc2c1cnn2CC(O)(C(F)(F)F)C(F)(F)F` [Ex 756, 4-((5-(4-methyl-1-(3,3,3-trifluoro-2-hydroxy-2-(trifluoromethyl)propyl)-1H-indazol-5-yl)-2,6-naphthyridin-3-yl)amino)-N-(4-(4-methylpiperazin-1-yl)pyrimidin-2-yl)benzenesulfonamide], the IC50 was under 25 nM on CDK2/CCNE1 (setting [1]), over 250 nM on CDK1/CCNB1 (setting [5]), over 250 nM at CDK4/CCND3 (setting [6]) and over 250 nM on CDK6/CCND1 (setting [7]).
On to `Cc1c(-c2ncc(F)c3cnc(Nc4ccc(S(C)(=O)=O)cc4)cc23)ccc2c1cnn2CC(O)(C(F)(F)F)C(F)(F)F` [Ex 757, 1,1,1,3,3,3-hexafluoro-2-((5-(4-fluoro-7-((4-(methylsulfonyl)phenyl)amino)-2,6-naphthyridin-1-yl)-4-methyl-1H-indazol-1-yl)methyl)propan-2-ol], for which the IC50 at CDK2/CCNE1 (setting [8]) is 25 to 250 nM; at CDK1/CCNB1 (setting [5]), over 250 nM; at CDK4/CCND3 (setting [6]), over 250 nM; on CDK6/CCND1 (setting [7]), over 250 nM.
Take `Cc1c(-c2nccc3cnc(Nc4ccc(S(=O)(=O)NC5CCCCC5)cc4)cc23)ccc2c1cnn2CC(C)(C)O` [Ex 758, N-cyclohexyl-4-((5-(1-(2-hydroxy-2-methylpropyl)-4-methyl-1H-indazol-5-yl)-2,6-naphthyridin-3-yl)amino)benzenesulfonamide]: the IC50 was 25 to 250 nM at CDK2/CCNE1 (setting [8]), over 250 nM at CDK1/CCNB1 (setting [5]), over 250 nM on CDK4/CCND3 (setting [6]) and over 250 nM on CDK6/CCND1 (setting [7]).
Turning to `Cc1ccnc(NS(=O)(=O)c2ccc(Nc3cc4c(-c5ccc6c(cnn6CC(O)(C(F)(F)F)C(F)(F)F)c5C)nccc4cn3)cc2)n1` [Ex 759, 4-((5-(4-methyl-1-(3,3,3-trifluoro-2-hydroxy-2-(trifluoromethyl)propyl)-1H-indazol-5-yl)-2,6-naphthyridin-3-yl)amino)-N-(4-methylpyrimidin-2-yl)benzenesulfonamide], the IC50 is under 25 nM on CDK2/CCNE1 (setting [1]), over 250 nM on CDK1/CCNB1 (setting [5]), over 250 nM at CDK4/CCND3 (setting [6]) and over 250 nM on CDK6/CCND1 (setting [7]).
`Cc1c(-c2nccc3cnc(Nc4ccc(S(=O)(=O)NC5CCN(CCO)CC5)cc4)cc23)ccc2c1cnn2CC(C)(C)O` [Ex 762, 4-((5-(1-(2-hydroxy-2-methylpropyl)-4-methyl-1H-indazol-5-yl)-2,6-naphthyridin-3-yl)amino)-N-(1-(2-hydroxyethyl)piperidin-4-yl)benzenesulfonamide]: the IC50 on CDK2/CCNE1 (setting [1]) was under 25 nM; on CDK1/CCNB1 (setting [2]) it was 25 to 250 nM; on CDK4/CCND3 (setting [3]), 25 to 250 nM; at CDK6/CCND1 (setting [4]), 25 to 250 nM.
For `Cc1c(-c2nccc3cnc(Nc4ccc(S(=O)(=O)NC5CCN(C)CC5)cc4)cc23)ccc2c1cnn2CC(C)(C)O` [Ex 763, 4-((5-(1-(2-hydroxy-2-methylpropyl)-4-methyl-1H-indazol-5-yl)-2,6-naphthyridin-3-yl)amino)-N-(1-methylpiperidin-4-yl)benzenesulfonamide], the IC50 on CDK2/CCNE1 (setting [1]) is under 25 nM; at CDK1/CCNB1 (setting [2]), 25 to 250 nM; at CDK4/CCND3 (setting [3]), 25 to 250 nM; on CDK6/CCND1 (setting [4]), 25 to 250 nM.
`Cc1c(-c2nccc3cnc(Nc4ccc(S(=O)(=O)NC5CCNCC5)cc4)cc23)ccc2c1cnn2CC(C)(C)O` [Ex 764, 4-((5-(1-(2-hydroxy-2-methylpropyl)-4-methyl-1H-indazol-5-yl)-2,6-naphthyridin-3-yl)amino)-N-(piperidin-4-yl)benzenesulfonamide]: the IC50 on CDK2/CCNE1 (setting [1]) was under 25 nM; on CDK1/CCNB1 (setting [5]), over 250 nM; on CDK4/CCND3 (setting [3]), 25 to 250 nM; on CDK6/CCND1 (setting [4]), 25 to 250 nM.
On to `COc1nc(S(C)(=O)=O)ccc1Nc1cc2c(-c3ccc4c(cnn4CC(C)(C)O)c3C)nccc2cn1` [Ex 766, 1-(5-(7-((2-methoxy-6-(methylsulfonyl)pyridin-3-yl)amino)-2,6-naphthyridin-1-yl)-4-methyl-1H-indazol-1-yl)-2-methylpropan-2-ol], for which the IC50 was 25 to 250 nM at CDK2/CCNE1 (setting [8]), over 250 nM at CDK1/CCNB1 (setting [5]), over 250 nM on CDK4/CCND3 (setting [6]) and over 250 nM at CDK6/CCND1 (setting [7]).
Regarding `Cc1c(-c2nccc3cnc(Nc4ccc(NS(=O)(=O)c5ccc(N6CCNCC6)cc5)cc4)cc23)ccc2c1cnn2CC(C)(C)O` [Ex 767, N-(4-((5-(1-(2-hydroxy-2-methylpropyl)-4-methyl-1H-indazol-5-yl)-2,6-naphthyridin-3-yl)amino)phenyl)-4-(piperazin-1-yl)benzenesulfonamide], the IC50 is under 25 nM on CDK2/CCNE1 (setting [1]), over 250 nM on CDK1/CCNB1 (setting [5]), over 250 nM on CDK4/CCND3 (setting [6]) and over 250 nM at CDK6/CCND1 (setting [7]).
`Cc1c(-c2nccc3cnc(Nc4ccc(NS(=O)(=O)c5ccccn5)cc4)cc23)ccc2c1cnn2CC(C)(C)O` [Ex 768, N-(4-((5-(1-(2-hydroxy-2-methylpropyl)-4-methyl-1H-indazol-5-yl)-2,6-naphthyridin-3-yl)amino)phenyl)pyridine-2-sulfonamide]: the IC50 was under 25 nM on CDK2/CCNE1 (setting [1]), 25 to 250 nM on CDK1/CCNB1 (setting [2]), 25 to 250 nM at CDK4/CCND3 (setting [3]) and 25 to 250 nM at CDK6/CCND1 (setting [4]).
As to `Cc1c(-c2nccc3cnc(Nc4ccc(S(=O)(=O)Nc5nccc(N6CCOCC6)n5)cc4)cc23)ccc2c1cnn2CC(O)(C(F)(F)F)C(F)(F)F` [Ex 769, 4-((5-(4-methyl-1-(3,3,3-trifluoro-2-hydroxy-2-(trifluoromethyl)propyl)-1H-indazol-5-yl)-2,6-naphthyridin-3-yl)amino)-N-(4-morpholinopyrimidin-2-yl)benzenesulfonamide], the IC50 at CDK2/CCNE1 (setting [1]) is under 25 nM; on CDK1/CCNB1 (setting [5]), over 250 nM; at CDK4/CCND3 (setting [6]) it was over 250 nM; on CDK6/CCND1 (setting [7]) it was over 250 nM.
With `Cc1c(-c2nccc3cnc(Nc4ccc(S(=O)(=O)Nc5cc(N6CCOCC6)ccn5)cc4)cc23)ccc2c1cnn2CC(C)(C)O` [Ex 772, 4-((5-(1-(2-hydroxy-2-methylpropyl)-4-methyl-1H-indazol-5-yl)-2,6-naphthyridin-3-yl)amino)-N-(4-morpholinopyridin-2-yl)benzenesulfonamide], the IC50 on CDK2/CCNE1 (setting [1]) was under 25 nM; on CDK1/CCNB1 (setting [5]) it was over 250 nM; on CDK4/CCND3 (setting [3]), 25 to 250 nM; at CDK6/CCND1 (setting [4]) it was 25 to 250 nM.
Turning to `Cc1c(-c2nccc3cnc(Nc4ccc(S(=O)(=O)Nc5ccc(N6CCOCC6)cn5)cc4)cc23)ccc2c1cnn2CC(C)(C)O` [Ex 773, 4-((5-(1-(2-hydroxy-2-methylpropyl)-4-methyl-1H-indazol-5-yl)-2,6-naphthyridin-3-yl)amino)-N-(5-morpholinopyridin-2-yl)benzenesulfonamide], the IC50 on CDK2/CCNE1 (setting [1]) was under 25 nM; on CDK1/CCNB1 (setting [5]), over 250 nM; on CDK4/CCND3 (setting [3]), 25 to 250 nM; on CDK6/CCND1 (setting [4]), 25 to 250 nM.
Consider `Cc1c(-c2nccc3cnc(Nc4ccc(S(=O)(=O)Nc5cc(C(C)(C)O)ccn5)cc4)cc23)ccc2c1cnn2CC(C)(C)O` [Ex 774, 4-((5-(1-(2-hydroxy-2-methylpropyl)-4-methyl-1H-indazol-5-yl)-2,6-naphthyridin-3-yl)amino)-N-(4-(2-hydroxypropan-2-yl)pyridin-2-yl)benzenesulfonamide], for which the IC50 at CDK2/CCNE1 (setting [1]) is under 25 nM; at CDK1/CCNB1 (setting [5]), over 250 nM; on CDK4/CCND3 (setting [3]) it was 25 to 250 nM; at CDK6/CCND1 (setting [4]), 25 to 250 nM.
